A value given as a limit tells only on which side of the number the result lay.

In one assay the target is T1, MAT2A homodimer (Homo sapiens, UniProt P31153).
T1 construct: inferred from Ni sepharose purification and imidazole elution; made in house; host or cells: SF9 insect cells, recombinant baculovirus (Bac to Bac, pFASTBAC1)
In words: MAT2A biochemical assay (phosphate release, PiColorLock Gold). The note with it: recombinant MAT2A homodimer, 60 min pre-incubation, 25° C.; read-out: Enzyme Inhibition. In outline:
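Baculovirus/Sf9-expressed, Ni-purified MAT2A homodimer (4 µg/mL in pH 8.0 Tris/KCl/MgCl2 buffer) preincubated 60 min at 25 °C with compound (2% DMSO final). Substrate mix of 500 µM ATP and 400 µM L-methionine added; 60 min at 25 °C; released phosphate quantified colorimetrically against a phosphate standard curve.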

The subject of assay [1] is MAT2A activity (SAM) in HCT116 cells with deleted MTAP gene. Kind of assay: Cellular assay of target engagement (SAM) by LC-MS/MS. It counts as cell-based. The note with it: Homo sapiens, HCT-116; HCT116 MTAP −/−, 72 hrs; read-out: Cell 72 h SAM Inhibition (MTAP −/−). The gist of the method: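 HCT116 MTAP-deleted cells treated with 10-point 3-fold DMSO serial dilutions of compound for 72 hrs at 37° C. Cells lysed in cold 80% methanol/acetic acid extraction buffer with d3-SAM internal standard; SAM quantified by LC-MS/MS (MRM m/z 399.2→250.1).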

For a further assay, the system named is HCT116 MTAP+/+. In words: Inhibition of cellular proliferation (Cell Titer Glo), HCT116 MTAP+/+. It counts as cell-based. The note with it: Homo sapiens, HCT-116, 96 h, 4 days, read-out: 4 Day Relative Growth Inhibition (MTAP +/+). The gist of the method:
(§1)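 Isogenic HCT116 MTAP+/+ and MTAP−/− cells treated 24 h after plating with 10-point 3-fold dilutions, then grown 4 days at 37 °C/5% CO2. ATP content read by Cell Titer Glo luminescence, blank-subtracted and normalized to 0.2% DMSO control, plotted as percent proliferation change versus log molar concentration.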

The test system of another assay is HCT116 MTAP−/−. In words: Inhibition of cellular proliferation (Cell Titer Glo), HCT116 MTAP-/-. It counts as cell-based. The conditions noted are these: Homo sapiens, HCT-116, 96 h, 4 days, read-out: 4 Day Relative Growth Inhibition (MTAP −/−). The gist of the method:
as §1
On the technique in general: Cellular ATP, detected with luciferase, serves as a proxy for viable cell number.

T1 sequence (P31153 whole entry): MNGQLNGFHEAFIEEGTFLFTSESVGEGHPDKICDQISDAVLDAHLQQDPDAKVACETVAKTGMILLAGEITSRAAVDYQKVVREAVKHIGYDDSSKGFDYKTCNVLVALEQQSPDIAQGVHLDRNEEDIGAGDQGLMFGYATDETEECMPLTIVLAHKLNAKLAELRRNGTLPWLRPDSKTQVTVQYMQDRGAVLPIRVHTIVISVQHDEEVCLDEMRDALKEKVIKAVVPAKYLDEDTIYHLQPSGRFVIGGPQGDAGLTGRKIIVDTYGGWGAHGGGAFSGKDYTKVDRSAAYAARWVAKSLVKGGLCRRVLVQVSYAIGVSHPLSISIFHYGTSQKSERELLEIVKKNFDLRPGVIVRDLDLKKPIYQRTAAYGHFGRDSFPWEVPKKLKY

In the case of `[2H]C([2H])([2H])n1cc2cc(-n3nc4ccc(NC([2H])([2H])C([2H])([2H])[2H])nc4c(-c4ccc(C(F)F)nc4)c3=O)ccc2n1` [Example 321, 4-(6-(difluoromethyl)pyridin-3-yl)-6-((ethyl-d5)amino)-2-(2-(methyl-d3)-2H-indazol-5-yl)pyrido[3,2-c]pyridazin-3(2H)-one], the IC50 on MAT2A homodimer was less than 100 nM; in assay [1] it was less than 100 nM; with HCT116 MTAP+/+ it was no less than 1000 nM; with HCT116 MTAP−/−, less than 100 nM.

Take `CCNc1ccc2nn(-c3ccc4nn(C)cc4c3)c(=O)c(-c3ccc(C4CC4)nc3)c2n1` [Example 309]: the IC50 on MAT2A homodimer is less than 100 nM; in assay [1] it was less than 100 nM; with HCT116 MTAP+/+ it was no less than 1000 nM; in the assay with HCT116 MTAP−/−, less than 100 nM.

Regarding `C#Cc1c(=O)n(-c2ccc3nn(C)cc3c2)nc2ccc(OCC(F)F)nc12` [Example 214, 6-(2,2-difluoroethoxy)-4-ethynyl-2-(2-methyl-2H-indazol-5-yl)pyrido[3,2-c]pyridazin-3(2H)-one], the IC50 on MAT2A homodimer is 100 to 1000 nM; in assay [1], greater than 1000 nM; in the assay on HCT116 MTAP+/+ it was no less than 1000 nM; in the assay on HCT116 MTAP−/− it was no less than 1000 nM.

For the compound `Cn1cc2cc(-n3nc4ccc(OCC(F)F)nc4c(-c4ccc(Cl)cc4)c3=O)ccc2n1` [Example 124], the IC50 on MAT2A homodimer is less than 100 nM; in assay [1], less than 100 nM; in the assay on HCT116 MTAP+/+ it was 100 to 1000 nM; with HCT116 MTAP−/− it was less than 100 nM.

As for `Cn1cc2cc(-n3nc4ccc(OCC(F)F)nc4c(-c4ccn[nH]4)c3=O)ccc2n1` [Example 153], the IC50 on MAT2A homodimer was 100 to 1000 nM; in assay [1] it was greater than 1000 nM; with HCT116 MTAP+/+ it was no less than 1000 nM; in the assay on HCT116 MTAP−/−, no less than 1000 nM.

Turning to `O=c1c(-c2ccc(OC(F)F)cc2)c2nc(OCC(F)F)ccc2nn1-c1ccc2nnccc2c1` [Example 176], the IC50 at MAT2A homodimer was less than 100 nM; in assay [1], less than 100 nM; in the assay with HCT116 MTAP+/+, 100 to 1000 nM; in the assay on HCT116 MTAP−/−, 100 to 1000 nM.

As for `CCNc1ccc2nn(-c3ccc4nn(C)cc4c3)c(=O)c(-c3ccc(Cl)cc3)c2n1` [Example 103, 4-(4-chlorophenyl)-6-(ethylamino)-2-(2-methyl-2H-indazol-5-yl)pyrido[3,2-c]pyridazin-3(2H)-one], the IC50 on MAT2A homodimer is less than 100 nM; in assay [1] it was less than 100 nM; in the assay on HCT116 MTAP+/+ it was no less than 1000 nM; in the assay with HCT116 MTAP−/−, less than 100 nM.

For the compound `CCNc1ccc2nn(-c3ccc4nn(C)cc4c3)c(=O)c(-c3ccc(OC)nc3)c2n1` [Example 307], the IC50 on MAT2A homodimer is less than 100 nM; in assay [1], less than 100 nM; in the assay with HCT116 MTAP+/+ it was no less than 1000 nM; in the assay on HCT116 MTAP−/−, less than 100 nM.

`Cn1cc2cc(-n3nc4ccc(OCC5CC5)nc4c(-c4ccc(OC(F)F)cc4)c3=O)ccc2n1` [Example 137]: the IC50 is less than 100 nM at MAT2A homodimer, less than 100 nM in assay [1], no less than 1000 nM with HCT116 MTAP+/+ and less than 100 nM with HCT116 MTAP−/−.

In the case of `Cn1cc2cc(-n3nc4ccc(OCC(F)F)nc4c(-c4ccc(OC(F)F)cc4)c3=O)ccc2n1` [Example 125, 6-(2,2-difluoroethoxy)-4-(4-(difluoromethoxy)phenyl)-2-(2-methyl-2H-indazol-5-yl)pyrido[3,2-c]pyridazin-3(2H)-one], the IC50 at MAT2A homodimer is less than 100 nM; in assay [1], less than 100 nM; with HCT116 MTAP+/+ it was 100 to 1000 nM; with HCT116 MTAP−/−, less than 100 nM.

Regarding `Cn1cc2cc(-n3nc4ccc(NCC(F)F)nc4c(-c4ccc(Cl)cc4)c3=O)ccc2n1` [Example 156], the IC50 on MAT2A homodimer was less than 100 nM; in assay [1], less than 100 nM; in the assay with HCT116 MTAP+/+, no less than 1000 nM; with HCT116 MTAP−/−, less than 100 nM.

For the compound `CCOc1ccc2nn(-c3ccc4nn(C)cc4c3)c(=O)c(-c3ccc(OC(F)F)nc3)c2n1` [Example 120], the IC50 at MAT2A homodimer was less than 100 nM; in assay [1], less than 100 nM; with HCT116 MTAP+/+, no less than 1000 nM; in the assay on HCT116 MTAP−/−, less than 100 nM.

For `Cn1cc2cc(-n3nc4ccc(OCC(F)F)nc4c(-c4cccc(Cl)c4)c3=O)ccc2n1` [Example 140], the IC50 on MAT2A homodimer is less than 100 nM; in assay [1], 100 to 1000 nM; in the assay with HCT116 MTAP+/+ it was no less than 1000 nM; with HCT116 MTAP−/−, less than 100 nM.

For the compound `COc1ccc(-n2nc3ccc(OCC(F)F)nc3c(-c3ccc(OC(F)F)cc3)c2=O)cc1` [Example 105], the IC50 on MAT2A homodimer was less than 100 nM; in assay [1], 100 to 1000 nM; in the assay on HCT116 MTAP+/+, no less than 1000 nM; in the assay on HCT116 MTAP−/− it was 100 to 1000 nM.

Regarding `COc1ccc(-c2c(=O)n(-c3ccc4nn(C)cc4c3)nc3ccc(OCC(F)F)nc23)cc1` [Example 106], the IC50 on MAT2A homodimer is less than 100 nM; in assay [1] it was less than 100 nM; in the assay on HCT116 MTAP+/+, 100 to 1000 nM; with HCT116 MTAP−/− it was less than 100 nM.

For the compound `CCOc1ccc2nn(-c3ccc4nn(C)cc4c3)c(=O)c(-c3ccc(OC)cc3)c2n1` [Example 115], the IC50 at MAT2A homodimer was less than 100 nM; in assay [1], less than 100 nM; in the assay with HCT116 MTAP+/+ it was 100 to 1000 nM; with HCT116 MTAP−/−, less than 100 nM.

Regarding `Cn1cc2cc(-n3nc4ccc(OCC(F)(F)F)nc4c(-c4ccc(Cl)cc4)c3=O)ccc2n1` [Example 116], the IC50 at MAT2A homodimer is less than 100 nM; in assay [1], less than 100 nM; in the assay with HCT116 MTAP+/+ it was no less than 1000 nM; in the assay with HCT116 MTAP−/−, less than 100 nM.

On to `Cc1ccc(-c2c(=O)n(-c3ccc4nn(C)cc4c3)nc3ccc(OCC4CC4)nc23)cn1` [Example 302], for which the IC50 on MAT2A homodimer was less than 100 nM; in assay [1], less than 100 nM; in the assay on HCT116 MTAP+/+, no less than 1000 nM; with HCT116 MTAP−/− it was less than 100 nM.

For the compound `O=c1c(-c2ccc(OC(F)F)cc2)c2nc(OCC(F)F)ccc2nn1-c1ccc2c(c1)CCO2` [Example 178], the IC50 at MAT2A homodimer is less than 100 nM; in assay [1], less than 100 nM; in the assay with HCT116 MTAP+/+, 100 to 1000 nM; with HCT116 MTAP−/−, less than 100 nM.

On to `CCOc1ccc2nn(-c3ccc4nn(C)cc4c3)c(=O)c(-c3ccc(OC(F)(F)F)nc3)c2n1` [Example 121], for which the IC50 was less than 100 nM on MAT2A homodimer, less than 100 nM in assay [1], no less than 1000 nM in the assay on HCT116 MTAP+/+ and less than 100 nM in the assay on HCT116 MTAP−/−.

Regarding `CCNc1ccc2nn(-c3ccc4nn(C)cc4c3)c(=O)c(-c3ccc(C(F)(F)F)nc3)c2n1` [Example 316], the IC50 at MAT2A homodimer is less than 100 nM; in assay [1], less than 100 nM; with HCT116 MTAP+/+ it was no less than 1000 nM; with HCT116 MTAP−/−, less than 100 nM.

`CCOc1ccc2nn(-c3ccc4nn(C)cc4c3)c(=O)c(-c3ccc(Cl)cc3)c2n1` [Example 119]: the IC50 on MAT2A homodimer is less than 100 nM; in assay [1], less than 100 nM; with HCT116 MTAP+/+ it was no less than 1000 nM; in the assay with HCT116 MTAP−/−, less than 100 nM.

Consider `CCc1c2cc(-n3nc4ccc(OCC(F)F)nc4c(-c4ccc(OC(F)F)cc4)c3=O)ccc2nn1C` [Example 208, 6-(2,2-difluoroethoxy)-4-(4-(difluoromethoxy)phenyl)-2-(3-ethyl-2-methyl-2H-indazol-5-yl)pyrido[3,2-c]pyridazin-3(2H)-one], for which the IC50 on MAT2A homodimer is less than 100 nM; in assay [1], less than 100 nM; with HCT116 MTAP+/+ it was 100 to 1000 nM; in the assay with HCT116 MTAP−/− it was less than 100 nM.

With `Cn1cc2cc(-n3nc4ccc(NCC(F)(F)F)nc4c(-c4ccc(C(F)F)nc4)c3=O)ccc2n1` [Example 317], the IC50 is less than 100 nM on MAT2A homodimer, less than 100 nM in assay [1], no less than 1000 nM in the assay on HCT116 MTAP+/+ and less than 100 nM with HCT116 MTAP−/−.

In the case of `CCOc1nc2c(-c3ccc(OC(F)F)cc3)c(=O)n(-c3ccc4nn(C)cc4c3)nc2cc1F` [Example 195], the IC50 on MAT2A homodimer is less than 100 nM; in assay [1], less than 100 nM; in the assay with HCT116 MTAP+/+ it was no less than 1000 nM; in the assay on HCT116 MTAP−/− it was no less than 1000 nM.

With `O=c1c(-c2ccc(OC(F)F)cc2)c2nc(OCC(F)F)ccc2nn1-c1ccc2c(c1)OCCO2` [Example 177], the IC50 on MAT2A homodimer was less than 100 nM; in assay [1] it was less than 100 nM; in the assay with HCT116 MTAP+/+ it was 100 to 1000 nM; in the assay with HCT116 MTAP−/−, less than 100 nM.

Consider `CCOc1ccc2nn(-c3ccc(OC)cc3)c(=O)c(-c3ccc(Cl)cc3)c2n1` [Example 117], for which the IC50 on MAT2A homodimer is less than 100 nM; in assay [1], less than 100 nM; in the assay with HCT116 MTAP+/+ it was no less than 1000 nM; with HCT116 MTAP−/−, less than 100 nM.

`O=c1c(-c2ccc(Br)cc2)c2nc(OCC(F)F)ccc2nn1-c1ccc2ncsc2c1` [Example 201, 2-(benzo[d]thiazol-6-yl)-4-(4-bromophenyl)-6-(2,2-difluoroethoxy)pyrido[3,2-c]pyridazin-3(2H)-one]: the IC50 at MAT2A homodimer was less than 100 nM; in assay [1] it was less than 100 nM; in the assay on HCT116 MTAP+/+, no less than 1000 nM; in the assay with HCT116 MTAP−/−, less than 100 nM.

As to `CC(C)Oc1ccc2nn(-c3ccc4nn(C)cc4c3)c(=O)c(-c3ccc(Br)cc3)c2n1` [Example 199, 4-(4-bromophenyl)-6-isopropoxy-2-(2-methyl-2H-indazol-5-yl)pyrido[3,2-c]pyridazin-3(2H)-one], the IC50 is less than 100 nM at MAT2A homodimer, less than 100 nM in assay [1], no less than 1000 nM in the assay with HCT116 MTAP+/+ and less than 100 nM with HCT116 MTAP−/−.

These data come from patent publication US12077534B2, “Aza-heterobicyclic inhibitors of MAT2A and methods of use for treating cancer” (Les Laboratoires Servier SAS, priority 2018, dated 2024).
